Measured values taken from US20220168319A1, “COMBINED USE OF A-NOR-5alpha ANDROSTANE COMPOUND DRUG AND ANTICANCER DRUG” (SHANGHAI AO QI MEDICAL TECHNOLOGY CO., LTD., priority 2019, published 2022).
Where two headings read alike, the source gives them in different places.

What was measured:
[1] = test system: liver cancer tissue from patients; test: Efficacy of ACP combined with oxaliplatin or sorafenib in liver cancer SuperPDTX mice model; assay type: in vivo, NCG mice; conditions: pathology after 7 days; ACP 5 mg/kg p.o. Bid*7, Sorafenib 60 mg/kg p.o. Qd*7, Oxaliplatin 6 mg/kg i.p. Biw*1
Excerpt: (§1) Mice: NCG (NOD-Prkdcem26I12rgem26Nju), Institute of Biomedical Research, Nanjing University
Liver cancer tissue mass were the P1 generation samples of cryopreserved collected from mice after inoculation of the samples from patients with liver cancer, and the samples used in this experiment were P2 generation samples after passage. Liver cancer samples were inoculated in the tested mice, and the size of inoculated tissue was 1*1*4 mm^3. On the day of inoculation, mice were randomly divided into 6 experimental groups with 6 mice in each group and 4 mice in each cage. The day of grouping was defined as Day 0. The mice were administered according to the experimental protocol for 7 days, and sampled within 24 hours after the end of administration. 24 h after the last administration, the experiment was ended, the mice were sacrificed, the tumor was removed, the surrounding connective tissue and muscle tissue were removed under the microscope, and stored in 10% formaldehyde.

[2] = test system: human pancreatic cancer PANC-1; test: Human pancreatic cancer PANC-1 xenograft transplantation model in nude mice; assay type: in vivo; conditions: ip × 7 qd; for Tumor Inhibition rate %: counted by tumor weight
Description: (§2) ACP Administration Group: oral doses were 5, 2.5 and 1.25 mg/kg; oral administration twice a day (with an interval of about 6 hours) for 14 days.
(§3) ACP+Adriamycin or Cyclophosphamide Administration Group: oral doses of ACP were 5, 2.5 and 1.25 mg/kg; oral administration twice a day (with an interval of about 6 hours) for 14 days. Adriamycin lmg/kg or Cyclophosphamide 15 mg/kg were administered intraperitoneally 10 min after the first ACP administration for 7 consecutive days.
(§4) Positive Control Group: Adriamycin 2 mg/kg/time or cyclophosphamide 30 mg/kg/time were administered intraperitoneally once a day for 7 days.
(§5) Negative Control Group: the same volume of solvent as the experimental group was administered, and the administration scheme was the same as that of the experimental group.
(§6) Human tumor cell lines cryopstored in liquid nitrogen were cultured at 37° C. and 5% CO2 after resuscitation. After subculture, the cells in logarithmic growth period were taken and prepared into cell suspension of about (1-2)×10^7 Cell/ml, and inoculated subcutaneously in the right axilla of nude mice 0.2 ml/mice. Under aseptic conditions, tumor tissues of the second or later generations of human tumors liver cancer QGY-7703, pancreatic cancer PANC-1, and lung cancer A549 xenograft models with vigorous growth in vivo, were taken and cut into uniform pieces with the size of 1-2 mm3, and one piece was subcutaneously inoculated in the right axilla of each naked mouse with trocar. The mouse were randomly divided into groups till the tumors inoculated grow to more than 100 mm^3 and administered according to the experimental design scheme.
(§7) After administration, the tumor size was dynamically observed and tested, and the body weight of tumor-bearing mice was weighed. The short diameter (a) and long diameter (b) of the tumor of the naked mouse were measured with calipers every 3 days, and the tumor volume was calculated according to the formula of (a^2×b)/2. The relative tumor volume (RTV) was calculated from the measured and calculated tumor volume, RTV=Vt/V0. Wherein, Vo is the tumor volume at random grouping (i.e., d0), and Vt is the tumor volume at each measurement (i.e., dn). The animals in each group were sacrificed at about three weeks, and the tumor volume was measured, dissected and weighed. The relative tumor proliferation rate and tumor inhibition rate were calculated according to the following formula: […]

human lung cancer A549 = test: Human lung cancer A549 xenograft transplantation model in nude mice; assay type: in vivo; conditions: ip × 7 qd; for Tumor Inhibition rate %: counted by tumor weight
Description: as §2, §3, §4, §5, §6, §7

[3] = test system: pancreatic cancer tissue from patients; test: Efficacy of ACP combined with gemcitabine in pancreatic cancer SuperPDTX mice model; assay type: in vivo, NCG mice; conditions: ACP 5 mg/kg p.o. Bid*7, Gemcitabine 30 mg/kg i.p. BIW
Excerpt: as §1
Pancreatic cancer tissue mass were the P2 generation samples of cryopreserved collected from mice after inoculation of the samples from patients with pancreatic cancer, and the samples used in this experiment were P3 generation samples after passage.
Pancreatic cancer samples were inoculated in the tested mice, and the size of inoculated tissue was 1*1*4mm^3. On the day of inoculation, mice were randomly divided into 4 experimental groups with 6 mice in each group and 4 mice in each cage. The day of grouping was defined as Day 0. The mice were administered according to the experimental protocol for 7 days, and sampled within 24 hours after the end of administration. 24h after the last administration, the experiment was ended, the mice were sacrificed, the tumor was removed, the surrounding connective tissue and muscle tissue were removed under the microscope, and stored in 10% formaldehyde.

[4] = test system: human liver cancer QGY-7703; assay type: in vivo, nude mice; conditions: ip × 7 qd; for Tumor Inhibition rate %: counted by tumor weight
Description: as §2, §3, §4, §5, §6, §7

CNC(=O)c1cc(Oc2ccc(NC(=O)Nc3ccc(Cl)c(C(F)(F)F)c3)cc2)ccn1 [Sorafenib, sorafenib]
Heterotypic Degree [1]: Severe | Proportion of tumor necrosis TCNR Mean [1]: 18.33 ± 7.52% | Tumor component Mean [1]: 58.33 ± 24.8%

COc1cccc2c1C(=O)c1c(O)c3c(c(O)c1C2=O)C[C@@](O)(C(=O)CO)C[C@@H]3O[C@H]1C[C@H](N)[C@H](O)[C@H](C)O1 [adriamycin]
Tumor weight (gram) x ± SD ([2]; 1 mg/kg): 0.668 ± 0.09 gram | Tumor Inhibition rate % ([2]; 1 mg/kg): 34.51% | Tumor weight (gram) x ± SD ([2]; 2 mg/kg): 0.265 ± 0.06 gram | Tumor Inhibition rate % ([2]; 2 mg/kg): 74.02% | Tumor weight (gram) x ± SD (human lung cancer A549; 1 mg/kg): 0.843 ± 0.08 gram | Tumor Inhibition rate % (human lung cancer A549; 1 mg/kg): 42.26% | Tumor weight (gram) x ± SD (human lung cancer A549; 2 mg/kg): 0.198 ± 0.04 gram | Tumor Inhibition rate % (human lung cancer A549; 2 mg/kg): 86.30%

Nc1ccn([C@@H]2O[C@H](CO)[C@@H](O)C2(F)F)c(=O)n1 [Gemcitabine, gemcitabine]
Tumor Ki67 Mean ([3]; immunohistochemistry after 7 days): 23.33 ± 5.16 | Heterotypic Degree ([3]; pathology after 7 days): Moderate | Proportion of tumor necrosis TCNR Mean ([3]; pathology after 7 days): 0.00 ± 0.00 | Tumor component Mean ([3]; pathology after 7 days): 55.00 ± 18.71

O=C1[O][Pt]2([NH][C@@H]3CCCC[C@H]3[NH]2)[O]C1=O [Oxaliplatin, oxaliplatin]
Heterotypic Degree [1]: Severe | Proportion of tumor necrosis TCNR Mean [1]: 16.67 ± 8.76% | Tumor component Mean [1]: 53.33 ± 15.1%

O=P1(N(CCCl)CCCl)NCCCO1 (stereo not shown) [Cyclophosphamide, cyclophosphamide]
Tumor weight (gram) x ± SD ([4]; 15 mg/kg): 1.010 ± 0.19 gram | Tumor Inhibition rate % ([4]; 15 mg/kg): 36.88% | Tumor weight (gram) x ± SD ([4]; 30 mg/kg): 0.197 ± 0.04 gram | Tumor Inhibition rate % ([4]; 30 mg/kg): 87.69%
